Laboratory results: patent US8673894B2 (Hoffmann-La Roche Inc., priority 2010, dated 2014)
Where a name gives a salt, the structure may show the parent alone.

Tests used:
[1] = target: T1, endogenous cellular BACE2 (Rattus norvegicus, UniProt Q6IE75); assay: Assay for BACE inhibition by measuring cellular TMEM27 cleavage; assay type: cell-based; conditions: INS-TMEM27 (INS1e-derived) cells, shed human TMEM27 in supernatant by ELISA
T1 construct: endogenous cellular BACE2 in the Ins1e rat cell line; endogenous in cells; host or cells: INS-TMEM27 (INS1e-derived rat insulinoma cell line with doxycycline-inducible full-length human TMEM27)
T1 sequence (Q6IE75 63-514): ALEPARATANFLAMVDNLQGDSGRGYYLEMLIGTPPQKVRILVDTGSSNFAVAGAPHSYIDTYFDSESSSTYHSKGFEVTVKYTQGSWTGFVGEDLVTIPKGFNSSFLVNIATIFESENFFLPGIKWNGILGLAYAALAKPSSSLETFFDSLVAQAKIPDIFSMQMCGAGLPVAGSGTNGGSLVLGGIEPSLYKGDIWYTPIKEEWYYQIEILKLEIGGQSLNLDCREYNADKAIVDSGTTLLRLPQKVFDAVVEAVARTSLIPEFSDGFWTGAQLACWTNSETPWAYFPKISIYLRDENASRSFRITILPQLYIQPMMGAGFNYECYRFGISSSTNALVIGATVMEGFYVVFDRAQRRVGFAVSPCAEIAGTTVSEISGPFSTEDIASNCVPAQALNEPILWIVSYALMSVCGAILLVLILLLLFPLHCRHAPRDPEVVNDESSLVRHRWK
Description: Assay for BACE Inhibition by Measuring Cellular TMEM27 Cleavage:
The assay uses the principle of inhibition of human TMEM27 cleavage by endogenous cellular BACE2 in the Ins1e rat cell line and shedding from the cell surface into the culture medium, followed by detection in an ELISA assay. Inhibition of BACE2 prevents the cleavage and shedding in a dose-dependent manner.
The stable cell line “INS-TMEM27” represents an INS1e-derived cell line with inducible expression (using the TetOn system) of full-length hTMEM27 in a doxycycline-dependent manner. The cells are cultured throughout the experiment in RPMI1640+ Glutamax (Invitrogen) Penicillin/Streptomycin, 10% Fetal bovine serum, […], […], 100 micrograms/ml G418 and 100 microgram/ml hygromycin and are grown inadherent culture at 37° C. in a standard CO2 cell culture incubator.
INS-TMEM27 cells are seeded in 96-well plates. After 2 days in culture, BACE2 inhibitor is added in a range of concentrations as required by the assay and after a further two hours, doxycycline is added to a final concentration of 500 ng/ml. The cells are incubated for a further 46 hours and the supernatant harvested for detection of shed TMEM27.
An ELISA assay (using a pair of mouse anti-human-TMEM27 antibodies, raised against the extracellular domain of TMEM27) is used for detection of TMEM27 in the culture medium. An EC50 for BACE2 inhibition is calculated using the ELISA readout for each inhibitor concentration with standard curve-fitting software such as XLFit for the Excel spreadsheet program.

Aβ40 = assay: Cellular Aβ-lowering assay; assay type: cell-based; conditions: HEK293 cells stably expressing human APP695, Aβ40 in supernatant by ELISA after 18-20 hrs; read-out: Cellular assay Abeta40 IC50
Experimental: Cellular Aβ-Lowering Assay:
Human HEK293 cells which are stably transfected with a vector expressing a cDNA of the human APP wt gene (APP695) were used to assess the potency of the compounds in a cellular assay. The cells were seeded in 96-well microtiter plates in cell culture medium (Iscove, plus 10% (v/v) fetal bovine serum, glutamine, penicillin/streptomycin) to about 80% confluence and the compounds were added at a 10× concentration in 1/10 volume of medium without FCS containing 8% DMSO (final concentration of DMSO was kept at 0.8% v/v). After 18-20 hrs incubation at 37° C. and 5% CO2 in a humidified incubator the culture supernatant was harvested for the determination of Aβ40 concentrations. 96well ELISA plates (e.g., Nunc MaxiSorb) were coated with monoclonal antibody which specifically recognize the C-terminal end of Aβ40 (Brockhaus et al., NeuroReport 9, 1481-1486; 1998). After blocking of non-specific binding sites with e.g. 1% BSA and washing, the culture supernatants were added in suitable dilutions together with a horseradish peroxidase-coupled Aβ detection antibody (e.g., antibody 4G8, Senetek, Maryland Heights, Mo.) and incubated for 5 to 7 hrs. Subsequently the wells of the microtiter plate were washed extensively with Tris-buffered saline containing 0.05% Tween 20 and the assay was developed with tetramethylbenzidine/H2O2 in citric acid buffer. After stopping the reaction with one volume 1 N H2SO4 the reaction was measured in an ELISA reader at 450 nm wavelength. The concentrations of Aβ in the culture supernatants were calculated from a standard curve obtained with known amounts of pure Aβ peptide.

IC50 [1] [nM]	IC50 (Aβ40) [nM]	Structure (SMILES)
38	220	CC1(C)C[C@@](C)(c2cc(NC(=O)C3(C(F)(F)F)CC3)ccc2F)N=C(N)CO1 [Example 20, 1-Trifluoromethyl-cyclopropanecarboxylic acid [3-((S)-3-amino-5,7,7-trimethyl-2,5,6,7-tetrahydro-[1,4]oxazepin-5-yl)-4-fluoro-phenyl]-amide]
8.7	3.2	CC1(C)C[C@@](C)(c2cc(NC(=O)c3ncc(C(F)(F)F)cc3Cl)ccc2F)N=C(N)CO1 [Example 21, 3-Chloro-5-trifluoromethyl-pyridine-2-carboxylic acid [3-((S)-3-amino-5,7,7-trimethyl-2,5,6,7-tetrahydro-[1,4]oxazepin-5-yl)-4-fluoro-phenyl]-amide]
55	980	CC1(C)C[C@@](C)(c2cc(NC(=O)CC(F)(F)F)ccc2F)N=C(N)CO1 [Example 22, N-[3-((S)-3-Amino-5,7,7-trimethyl-2,5,6,7-tetrahydro-[1,4]oxazepin-5-yl)-4-fluoro-phenyl]-3,3,3-trifluoro-propionamide]
140	1640	C[C@@]1(c2cc(NC(=O)C3CC3(F)F)ccc2F)CCOCC(N)=N1 (stereo partly drawn) [Example 23, 2,2-Difluoro-cyclopropanecarboxylic acid [3-((S)-3-amino-5-methyl-2,5,6,7-tetrahydro-[1,4]oxazepin-5-yl)-4-fluoro-phenyl]-amide]
28	5870	C[C@@]1(c2cc(NC(=O)C3(C(F)(F)F)CCC3)ccc2F)CCOCC(N)=N1 [Example 24, 1-Trifluoromethyl-cyclobutanecarboxylic acid [3-((S)-3-amino-5-methyl-2,5,6,7-tetrahydro-[1,4]oxazepin-5-yl)-4-fluoro-phenyl]-amide]
51	7	C[C@]1(c2cc(NC(=O)c3ncc(C(F)(F)F)cc3Cl)ccc2F)N=C(N)COCC1(F)F [Example 25, 3-Chloro-5-trifluoromethyl-pyridine-2-carboxylic acid [3-((R)-3-amino-6,6-difluoro-5-methyl-2,5,6,7-tetrahydro-[1,4]oxazepin-5-yl)-4-fluoro-phenyl]-amide]
58	44	C[C@]1(c2cc(NC(=O)c3ncccc3F)ccc2F)N=C(N)COCC1(F)F [Example 27, (R)-N-(3-(3-amino-6,6-difluoro-5-methyl-2,5,6,7-tetrahydro-1,4-oxazepin-5-yl)-4-fluorophenyl)-3-fluoropicolinamide, salt with formic acid]
130	340	CC1(C)OCCC(C)(c2cc(NC(=O)c3ccc(F)cn3)ccc2F)N=C1N (stereo not shown) [Example 28, 5-Fluoro-pyridine-2-carboxylic acid [3-(3-amino-2,2,5-trimethyl-2,5,6,7-tetrahydro-[1,4]oxazepin-5-yl)-4-fluoro-phenyl]-amide]
3.3	5.3	C[C@]1(c2cc(NC(=O)c3ccc(F)cn3)ccc2F)N=C(N)COCC1(F)F [Example 29, (R)-N-(3-(3-amino-6,6-difluoro-5-methyl-2,5,6,7-tetrahydro-1,4-oxazepin-5-yl)-4-fluorophenyl)-5-fluoropicolinamide formate]
43	2.1	C[C@]1(c2cc(NC(=O)c3ccc(C#N)cn3)ccc2F)N=C(N)COCC1(F)F [Example 30, (R)-N-(3-(3-amino-6,6-difluoro-5-methyl-2,5,6,7-tetrahydro-1,4-oxazepin-5-yl)-4-fluorophenyl)-5-cyanopicolinamide formate]
2.6	1	Cc1cc(Cl)cnc1C(=O)Nc1ccc(F)c([C@@]2(C)N=C(N)COCC2(F)F)c1 [Example 31, (R)-N-(3-(3-amino-6,6-difluoro-5-methyl-2,5,6,7-tetrahydro-1,4-oxazepin-5-yl)-4-fluorophenyl)-5-chloro-3-methylpicolinamide formate]
